# Source: article PMC7563222, “Recognition of Dimeric Lewis X by Anti-Dimeric Le^x Antibody SH2” (Vaccines, 2020)
# Columns and labels:
# [1] = tested on: mAb SH1; details: Le^x-BSA conjugate 4 immobilized; Le^x trisaccharide 7 as reference; --- = No inhibition; cited from earlier work
# [2] = tested on: mAb 1G5F6; parameters: method as in PMID 31666308; details: DimLe^x-BSA conjugate 1 immobilized; Le^x trisaccharide 7 as reference; --- = No inhibition; cited from earlier work
# [3] = tested on: mAb SH2; experiment: Competitive ELISA: inhibition of mAb SH2 binding to immobilized (DimLe^x)16-BSA conjugate 1; parameters: species or system mouse; details: for IC50 / SH2 ∆(∆G): Table 2; for IC50: DimLe^x-BSA conjugate 1 immobilized (5 μg/mL), SH2 ascites 1:500, read-out: SH2 IC50; for SH2 ∆(∆G): reference inhibitor Le^x 7, T = 296 K, --- = No inhibition
# Description: A MaxiSorp NUNC 96-well ELISA microtiter plate was coated with a dilution of the (DimLe^x)16-BSA conjugate 1 (100 μL per well, 5 μg/mL) in a 10 mM PBS solution at pH 7.1. The plate was covered with sealing tape and incubated at 4 °C overnight. The antigen solution was discarded, and the plate was washed (using ELx405 auto plate washer, 5 × 15 s) with a 10 mM PBS buffer at pH 7.3 containing 0.05% Tween 20. In 1.5 mL Eppendorf tubes, 175 μL dilutions of competitors (concentration ranging from 0.632 mg/mL to 2 mg/mL in 10 mM PBS-0.05% Tween 20) were incubated for 1 h at 23 °C (in the dark) with 175 μL of a solution of SH2 ascites (1:500 dilution in 10 mM PBS-0.05% Tween 20). At the same time, the plate was blocked with 0.05% skim milk in PBS (300 μL per well). After 1 h of incubation at 37 °C, the plate was washed with 10 mM PBS-0.05% Tween 20. Each well then received 100 μL of the competitor-mAb mixture. Three wells were used as the blank control in which the competitor-mAb mixture was not added, rather received 100 μL of 10 mM PBS-0.05% Tween 20. The plate was incubated for 3 h at 23 °C (in the dark). The plate was subsequently washed using the plate washer with PBS-0.05% Tween 20. A dilution of commercially available horseradish peroxidase labeled goat anti-mouse antibody (1:5000 in 10 mM PBS-0.05% Tween 20, 100 μL per well) was added to each well. After 1 h of incubation at 23 °C (in the dark), the plate was washed with 10 mM PBS-0.05% Tween 20. A solution of the chromogenic substrate TMB (100 μL per well) was added. After a 10 min incubation period at 23 °C (in the dark), 100 μL of 5% Phosphoric Acid stop solution was added to the wells to quench the reaction. The absorbance values were read at 450 nm employing a PowerWave XS plate reader. All samples were prepared in triplicate. The absorbance values were plotted as the percentage inhibition against an increasing concentration of competitor, calculated using wells containing no competitor as the reference point. The values were fitted to a 4-parameter logistics sigmoidal equation: y = y0 + a/[1 + (x/x0)^b] using Sigma Plot 10.0. The concentration of each analogue required for 50% inhibition (IC50) of Le^x-SH2 binding and the corresponding changes in free energy Δ(ΔG) of binding (kcal·mol^−1) using DimLe^xOPr 6 (Table 1) or Le^xOMe 7 (Table 2) as the reference were calculated.
# [4] = tested on: mAb SH2; experiment: Indirect titration ELISA of SH2 ascites against coated glycoconjugates; assay type: binding, mouse; details: for Binding of SH2 to coated antigen (titration, in words): antigens coated at 10 μg/mL, 2 and 5 also at 20 µg/mL (not shown)
# Description: MaxiSorp NUNC 96-well enzyme-linked immunosorbent assay (ELISA) microtiter plate (Thermo Fisher Scientific) was coated with a dilution of glycoconjugates 1–5 and BSA (100 μL per well, […]) in a 10 mM phosphate-buffered saline (PBS) solution at pH 7.1. The plate was covered with sealing tape and incubated at 4 °C overnight. The antigen solution was discarded, and the plate was washed (using ELx405 auto plate washer, 5 × 15 s) with a 10 mM PBS buffer at pH 7.3 containing 0.05% Tween 20. The plate was blocked with 0.05% skim milk in 10 mM PBS (300 μL per well) and incubated for 1 h at 37 °C. The plate was then washed with 10 mM PBS-0.05% Tween 20. A 1:100 dilution of SH2 ascites was prepared and 146 μL of the dilution was distributed in the wells corresponding to the primary dilution. All other wells received 100 μL of the 10 mM PBS-0.05% Tween 20 pH 7.3 buffer. In-plate serial dilutions were performed in which 46 μL of the primary dilution was pipetted downward along the rows. The well contents were mixed by rinsing the pipette tips (7×). Lastly, 46 μL of the mAb solution was removed and discarded from the wells, which received the final solution of mAb (final volume in all wells, 100 μL). The last row of the 96-well plate was used as the blank control. MAb SH2 ascites were not pipetted into these wells, rather 100 μL of 10 mM PBS-0.05% Tween 20 was added. The plate was incubated for 2 h at 23 °C (in the dark). The plate was subsequently washed using the plate washer with PBS-0.05% Tween 20. A dilution of commercially available horseradish peroxidase labeled goat anti-mouse antibody (Mandel Scientific) (1:5000 in 10 mM PBS-0.05% Tween 20, 100 μL per well) was added to each well. After 1 h of incubation at 23 °C (in the dark), the plate was washed with PBS-0.05% Tween 20. A solution of the chromogenic substrate 3,3′,5,5′-tetramethylbenzidine (TMB) (Mandel Scientific) (100 μL per well) was added. After a 10 min incubation period at 23 °C (in the dark), 100 μL of 5% Phosphoric Acid stop solution was added to the wells to quench the reaction. The absorbance values were read at 450 nm employing a PowerWave XS plate reader. All samples were prepared in triplicate. The absorbance values were plotted against an increasing serum dilution. The values were fitted to a 4-parameter logistics sigmoidal equation: y = y0 + a/[1 + (x/x0)^b] using Sigma Plot®® 10.0.
compound,measurement,setting,value
"CO[C@@H]1O[C@H](CO)[C@@H](O[C@@H]2O[C@H](CO)[C@H](O)[C@H](O)[C@H]2O)[C@H](O[C@@H]2O[C@@H](C)[C@H](O)[C@@H](O)[C@H]2O)[C@H]1O [compound 18, RhaLac]",SH1 ∆(∆G),[1],1.5 kcal/mol
same,1G5F6 ∆(∆G),[2],3.2 kcal/mol
same,Inhibition of SH2 binding to (DimLe^x)16-BSA by soluble oligosaccharide (in words),[3],no inhibition
same,IC50,[3],> 1800 µM
CO[C@@H]1O[C@H](CO)[C@@H](O[C@@H]2O[C@H](CO)[C@H](OC)[C@H](O)[C@H]2O)[C@H](O[C@@H]2O[C@@H](C)[C@@H](O)[C@@H](O)[C@@H]2O)[C@H]1O [compound 19],IC50,[3],148 µM
same,SH2 ∆(∆G),[3],0.7 kcal/mol
"CO[C@@H]1O[C@H](CO)[C@@H](O[C@@H]2O[C@H](CO)C[C@H](O)[C@H]2O)[C@H](O[C@@H]2O[C@@H](C)[C@@H](O)[C@@H](O)[C@@H]2O)[C@H]1O [compound 20, 4″-HLe^x]",SH1 ∆(∆G),[1],1.3 kcal/mol
same,1G5F6 ∆(∆G),[2],0.3 kcal/mol
same,IC50,[3],74 µM
same,SH2 ∆(∆G),[3],0.3 kcal/mol
"CO[C@@H]1O[C@H](CO)[C@@H](O[C@@H]2O[C@H](CO)[C@H](Cl)[C@H](O)[C@H]2O)[C@H](O[C@@H]2O[C@@H](C)[C@@H](O)[C@@H](O)[C@@H]2O)[C@H]1O [compound 21, 4″-ClLe^x]",SH1 ∆(∆G),[1],1.6 kcal/mol
same,1G5F6 ∆(∆G),[2],0.3 kcal/mol
same,IC50,[3],19 µM
same,SH2 ∆(∆G),[3],-0.5 kcal/mol
"CO[C@@H]1O[C@H](CO)[C@@H](O[C@@H]2O[C@H](CO)[C@H](F)[C@H](O)[C@H]2O)[C@H](O[C@@H]2O[C@@H](C)[C@@H](O)[C@@H](O)[C@@H]2O)[C@H]1O [compound 22, 4″-FLe^x]",SH1 ∆(∆G),[1],2.1 kcal/mol
same,1G5F6 ∆(∆G),[2],-0.1 kcal/mol
same,IC50,[3],17 µM
same,SH2 ∆(∆G),[3],-0.6 kcal/mol
(DimLe^x)6-TT [compound 2],"Binding of SH2 to coated antigen (titration, in words)",[4],very little binding
(DimLe^x)16-BSA [compound 1],Titration curve of SH2 (in words),[4]; coating with 3 µg/mL of the conjugate (Figure S1),did not reach maximum optical density
same,Inhibition of SH2 binding to (DimLe^x)16-BSA by glycoconjugates as soluble inhibitors (in words),"[3]; (DimLe^x)16-BSA 1 immobilized, SH2 serum dilution 1:500 (Figure 5)",able to inhibit binding
(GDimLe^x)16-BSA [compound 5],"Binding of SH2 to coated antigen (titration, in words)",[4],no binding
"bovine serum albumin [BSA, reference compound]","Binding of SH2 to coated antigen (titration, in words)",[4],no affinity
